{
  "source": "patent US6884793B2",
  "about": "“Combination preparation for contraception based on natural estrogens” (Jenapharm GmbH & Co. KG, priority 1995, dated 2005)",
  "origin": "cited, not measured here",
  "test_system": "human liver Cytochrome P-450",
  "data": [
    {"smiles": "C#C[C@]1(O)CC[C@H]2[C@@H]3CCc4cc(O)ccc4[C@H]3CC[C@@]21C", "note": "[Ethinyl estradiol, ethinyl estradiol]", "values": [
      {"measurement": "effect on Cytochrome P-450 system", "value": "suicidal blockage of the Cytochrome P-450 system"}
    ]}
  ]
}
